How the values were obtained:
[1] = test system: MCF-7 cells (human breast adenocarcinoma); test: MTT cytotoxicity test, MCF-7; assay type: cell-based; conditions: Homo sapiens, MCF7, MTT test; 24 h incubation per text, 48 h per method
Summary of the method: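 Viable MCF-7 cells quantified by MTT reduction to formazan, dissolved in DMSO and read at 540 nm. Triplicate experiments.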

[2] = test system: Chang liver cells (human liver cells, normal cell line); test: MTT cytotoxicity test, Chang liver normal cells; assay type: cell-based; conditions: 48 h incubation
Text: For the experiments, we used tumor cell cultures M-HeLa clone 11 (epithelioid carcinoma of the cervix, subline HeLa., clone M-HeLa), HuTu 80 (human duodenal adenocarcinoma) and MCF7 (human breast adenocarcinoma (pleural fluid)) from the collection of the Institute of Cytology, Russian Academy of Sciences (St. Petersburg); human liver cells (Chang liver) from the collection of the Research Institute of Virology at the Russian Academy of Medical Sciences (Moscow); and SH-SY5Y (neuroblastoma)from the Laboratory of Tumor Cell Genetics at the Scientific Research Institute of Carcinogenesis N.N. Blokhin National Medical Research Center of Oncology.
The cytotoxic effect on cells was determined using the colorimetric method of cell proliferation—the MTT test. NADP-H-dependent cellular oxidoreductase enzymes can, under certain conditions, reflect the number of viable cells. These enzymes are able to reduce the tetrazolium dye (MTT)-3-(4,5-dimethylthiazol-2-yl)-2,5-diphenyl-tetrazolium bromide to insoluble blue-violet formazan, which crystallizes inside the cell. The amount of formazan formed is proportional to the number of cells with active metabolism.
Cells were seeded on a 96-well Nunc plate at a concentration of 5 × 10^3 cells per well in a volume of 100 μL of medium and cultured in a CO2 incubator at 37 °C until a monolayer was formed. […] After 48 h, the nutrient medium was removed from the plates and 100 µL of the nutrient medium without serum with MTT at a concentration of 0.5 mg/mL was added and incubated for 4 h at 37 °C. Formazan crystals were […] 100 µL of DMSO in each well. Optical density was recorded at 540 nm on an in vitro logic microplate reader (Russia). The experiments for all compounds were repeated in triplicate.
IC50 values were estimated using the Quest Graph IC50 Calculator (AAT Bioquest, Inc., Sunnyvale, CA, USA) (Version 2022) (accessed on 25 June 2022).

[3] = test system: SH-SY5Y neuroblastoma cells; test: Glycolysis stress test (Seahorse XF96e, ECAR); assay type: cell-based; conditions: compound 100 µM
Protocol: We studied the ability of compounds to inhibit aerobic glycolysis using the Agilent Seahorse XF96e Analyzer (Seahorse Bioscience, North Billerica, MA, USA) assay of cellular metabolism on the level of proton production in samples examined on the SH-SY5Y neuroblastoma cell line using glycolysis stress tests. The extracellular acidification rate of the medium was measured in real time, which allowed us to assess the intensity of glycolysis in the cells by recording the main parameters of glycolytic function: basal glycolysis, glycolytic capacity and glycolytic reserve. Glycolytic capacity describes the maximum amount of glycolysis/glucose breakdown the cells can perform acutely, whereas glycolytic reserve is defined as the difference between the basal and maximal glycolytic capacity.
The ability of synthesized compounds to modulate […] glycolysis was studied using the Agilent Seahorse XF96e Analyzer (Seahorse Bioscience, Billerica, MA, USA) on the neuroblastoma SH-SY5Y cell line (40,000 cells per well) as described earlier.
Glycolysis was measured by subtracting the maximum rate of extracellular acidification of the medium before glucose injection from the maximum rate before oligomycin injection. Glycolytic capacity was measured by subtracting the maximum velocity value before glucose injection from the maximum velocity value after oligomycin injection. Glycolytic reserve was defined as the difference between glycolytic capacity and glycolysis.
Figure 6 Effect of synthesized compounds on the glycolytic profile of (a–c) SH-SY5Y tumor cells and (d) calculated parameters of glycolytic function. […] The concentration of compounds was 100 µM, glucose—10 mM, oligomycin—1 µM и 2-fluoro-2-deoxy-D-glucose—25 mM. Data are presented as mean±error of the mean (n = 3). Statistical significance was assessed using one-way ANOVA and Dunnett’s multiple comparison tests, where **** p < 0.0001, *** p < 0.001, ** p < 0.01 and * p < 0.05 vs. control.

[4] = test system: isolated rat liver mitochondria; test: Membrane potential of isolated mitochondria (Safranin A); assay type: biochemical; conditions: for Depolarization of mitochondrial membrane: isolated mitochondria
Protocol: The membrane potential of rat […] mitochondria was measured with a Victor 3 plate analyzer (Perkin Elmer, Hamburg, Germany) using the potential-dependent indicator Safranin A [57]. The mitochondrial preparation was diluted in a buffer containing mannitol (225 mM) (Dia-M, Moscow, Russia), sucrose (75 mM) (Sigma Aldrich, Saint Louis, MO, USA), HEPES (10 mM) (Gibco, Scotland, UK), EGTA (20 µM) (Dia-M, Moscow, Russia) and KH2PO4 (1 mM) at pH = 7.4 at a ratio of 0.5 mg of protein to 1 mL of medium. Safranin A (5 µM) was added to the suspension immediately before the start of the measurement. The organelles were then energized by potassium succinate (5 mM) in the presence of rotenone (1 µM). Mitochondrial pore opening was induced by the addition of CaCl2 (25 µM).
Figure 8 Effect of the synthesized compounds on the membrane potential of rat liver mitochondria. (a) Kinetic lines of transmembrane potential changes at λex = 458 nm and λem = 590 nm. The concentration of the test substances was 100 µM. (b) Calculated parameters of % depolarization relative to control samples. Statistical significance was assessed using one-way ANOVA and Dunnett’s multiple comparison tests, where **** p < 0.0001 vs. control. (c) Concentration dependence of the effects of 11b and 17b on mitochondrial membrane potential. The concentration of the test substances was from 20 to 200 µM. Concentration of ions; Ca^2+—25 µM. Mitochondria were energized by potassium succinate and rotenone. Data are presented as mean±error of the mean (n = 3).

Question: Which results are given for `CCOP(=O)(OCC)C(c1cc(C(C)(C)C)c(O)c(C(C)(C)C)c1)c1ccc(NC(=O)Nc2ccc([N+](=O)[O-])cc2)cc1NC(=O)Nc1ccc([N+](=O)[O-])cc1` (centres unmarked) [17b]?
Answer: IC50 [1]: 51 ± 4.2 µM; IC50 [2]: 74 ± 5.9 µM; Glycolytic reserve [3]: ability to decrease glycolytic reserves; Glycolysis: rate of extracellular acidification after saturating glucose ([3]; glucose 10 mM): decrease in the rate of extracellular acidification; Glycolytic capacity ([3]; oligomycin 1 µM): decrease in glycolytic capacity; Depolarization of mitochondrial membrane ([4]; compound 100 μM): 50%; Depolarization of mitochondrial membrane ([4]; compound 200 μM): ~100%; Depolarization relative to control (class in Figure 8b) ([4]; isolated rat liver mitochondria, compound 100 µM): High Depolarization

From article PMC10454409, “Hybrids of Sterically Hindered Phenols and Diaryl Ureas: Synthesis, Switch from Antioxidant Activity to ROS Generation and Induction of Apoptosis” (International Journal of Molecular Sciences, 2023)
